Laboratory results from PubChem BioAssay AID256 (DTP/NCI, 2004).
“And” between values parts separate entries of the source, which are not always exact repeats. Identical values can stand only once. Inconclusive results and toxic doses are left out. The calls were made as follows: active = survival T/C of 150% or more; inactive = T/C below 125% in these data.

Test system: CD2F1 mice, L1210 leukemia ip, survival T/C
Experiment: NCI In Vivo Anticancer Drug Screen. Data for tumor model L1210 Leukemia (intraperitoneal) in CD2F1 (CDF1) mice
Details: endpoint: mean survival time, higher = longer survival
How it was run: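 Compound-dosed mice with transplantable tumor versus matched vehicle controls; endpoint ratio T/C reported.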

[1] = dose: 100.0 mg/kg/injection, schedule: Q01DX001 (ip), vehicle: saline
[2] = dose: 200.0 mg/kg/injection, schedule: Q01DX001 (ip), vehicle: saline
[3] = dose: 400.0 mg/kg/injection, schedule: Q01DX001 (ip), vehicle: saline
[4] = dose: 25.0 mg/kg/injection, schedule: Q01DX009 (ip), vehicle: saline
[5] = dose: 50.0 mg/kg/injection, schedule: Q01DX009 (ip), vehicle: saline
[6] = dose: 50.0 mg/kg/injection, schedule: Q01DX009 (ip), vehicle: saline with Tween-80
[7] = dose: 100.0 mg/kg/injection, schedule: Q01DX009 (ip), vehicle: saline with Tween-80
[8] = dose: 200.0 mg/kg/injection, schedule: Q01DX009 (ip), vehicle: saline with Tween-80
[9] = dose: 100.0 mg/kg/injection, schedule: Q01DX001 (ip), vehicle: Klucel (hydroxypropylcellulose) (HPC)
[10] = dose: 100.0 mg/kg/injection, schedule: Q04DX003 (ip), vehicle: saline with Tween-80
[11] = dose: 200.0 mg/kg/injection, schedule: Q04DX003 (ip), vehicle: saline with Tween-80
[12] = dose: 400.0 mg/kg/injection, schedule: Q04DX003 (ip), vehicle: saline with Tween-80
[13] = dose: 400.0 mg/kg/injection, schedule: Q01DX009 (ip), vehicle: saline with Tween-80
[14] = dose: 75.0 mg/kg/injection, schedule: Q01DX001 (ip), vehicle: saline
[15] = dose: 150.0 mg/kg/injection, schedule: Q01DX001 (ip), vehicle: saline

Measured: T/C

Nc1ccc(C(=O)Nc2ccc(S(=O)(=O)F)cc2)cc1
inactive: [1] 100 % of control | [2] 96 % of control | [3] 102 % of control

COC(=O)c1ccccc1Cn1c(C)cnc1C
inactive: dose: 12.5 mg/kg/injection, schedule: Q01DX009 (ip), vehicle: saline 101 % of control | [4] 93 % of control | [5] 101 % of control and 105 % of control

Oc1ccccc1Cn1ccnc1
inactive: [4] 104 % of control | [5] 98 % of control | dose: 100.0 mg/kg/injection, schedule: Q01DX009 (ip), vehicle: saline 98 % of control and 103 % of control

N#CSCc1ccc(Cl)cc1Cl
inactive: [6] 103 % of control | [7] 101 % of control | [8] 96 % of control

CC(C)(C)C1=CC(=O)C(C#N)=C(C#N)C1=O
inactive: dose: 25.0 mg/kg/injection, schedule: Q01DX009 (ip), vehicle: saline with Tween-80 96 % of control

CCCCOc1ccc(OCCCC)cc1
inactive: dose: 100.0 mg/kg/injection, schedule: Q04DX003 (ip), vehicle: other 114 % of control | dose: 200.0 mg/kg/injection, schedule: Q04DX003 (ip), vehicle: other 97 % of control | dose: 400.0 mg/kg/injection, schedule: Q04DX003 (ip), vehicle: other 101 % of control

CCOC(=O)C1(C(=O)OCC)CCC(OCC)N1C(=O)c1ccccc1[N+](=O)[O-] (stereo not drawn)
inactive: [9] 100 % of control | dose: 200.0 mg/kg/injection, schedule: Q01DX001 (ip), vehicle: Klucel (hydroxypropylcellulose) (HPC) 92 % of control | dose: 400.0 mg/kg/injection, schedule: Q01DX001 (ip), vehicle: Klucel (hydroxypropylcellulose) (HPC) 92 % of control

COC(=O)/C(=C\c1ccccc1Cl)C(C)=O
inactive: [10] 104 % of control | [11] 98 % of control | [12] 102 % of control

O=C(C[P+](c1ccccc1)(c1ccccc1)c1ccccc1)c1ccccc1
inactive: dose: 25.0 mg/kg/injection, schedule: Q01DX001 (ip), vehicle: Klucel (hydroxypropylcellulose) (HPC) 107 % of control | dose: 50.0 mg/kg/injection, schedule: Q01DX001 (ip), vehicle: Klucel (hydroxypropylcellulose) (HPC) 107 % of control | [9] 96 % of control | [7] 103 % of control | [8] 97 % of control | [13] 103 % of control

c1ccc2c(c1)ccc1c3ccccc3[nH]c21
inactive: dose: 100.0 mg/kg/injection, schedule: Q01DX009 (ip), vehicle: other 94 % of control | dose: 200.0 mg/kg/injection, schedule: Q01DX009 (ip), vehicle: other 97 % of control | dose: 400.0 mg/kg/injection, schedule: Q01DX009 (ip), vehicle: other 96 % of control

CS(=O)(=O)c1nc2ccccc2s1
inactive: [7] 103 % of control | [8] 91 % of control

CCNC(=S)Nc1ccccc1
inactive: [6] 103 % of control | [7] 100 % of control | [8] 111 % of control

CC(C)(C)C(=O)CC(=O)C(C)(C)C.CC(C)(C)C(=O)CC(=O)C(C)(C)C.CC(C)(C)C(=O)CC(=O)C(C)(C)C.[Sc]
inactive: dose: 50.0 mg/kg/injection, schedule: Q04DX003 (ip), vehicle: saline with Tween-80 94 % of control | [10] 94 % of control and 100 % of control | [11] 97 % of control and 104 % of control | [12] 95 % of control

CCCCCCCCCCCCCCCCCC(=O)N1CC[N+](C)(C)CC1
inactive: [14] 101 % of control | [15] 100 % of control | dose: 300.0 mg/kg/injection, schedule: Q01DX001 (ip), vehicle: saline 107 % of control

COc1cccc2c1CCC13OC(O)CC21CCCC3C#N (stereo not drawn)
inactive: [1] 95 % of control | [2] 95 % of control | [3] 90 % of control

Brc1ccc2c(c1)Cc1cc(N=Cc3ccc4c(c3)OCO4)ccc1-2
inactive: dose: 100.0 mg/kg/injection, schedule: Q01DX001 (ip), vehicle: carboxymethylcellulose (CMC) 97 % of control | dose: 200.0 mg/kg/injection, schedule: Q01DX001 (ip), vehicle: carboxymethylcellulose (CMC) 94 % of control | dose: 400.0 mg/kg/injection, schedule: Q01DX001 (ip), vehicle: carboxymethylcellulose (CMC) 100 % of control

CN(N=O)C(=O)NC1C(CO)OC(n2ccc(=O)[nH]c2=O)C1O (stereo not drawn)
inactive: dose: 13.0 mg/kg/injection, schedule: Q01DX001 (ip), vehicle: saline 105 % of control | dose: 20.0 mg/kg/injection, schedule: Q01DX001 (ip), vehicle: saline 107 % of control | dose: 30.0 mg/kg/injection, schedule: Q01DX001 (ip), vehicle: saline 110 % of control | dose: 44.0 mg/kg/injection, schedule: Q01DX001 (ip), vehicle: saline 111 % of control | dose: 67.0 mg/kg/injection, schedule: Q01DX001 (ip), vehicle: saline 107 % of control | [1] 122 % of control | [15] 121 % of control

CCN(Cc1cccc(S(=O)(=O)O)c1)c1ccc(C(=C2C=CC(=[N+](CC)Cc3cccc(S(=O)(=O)O)c3)C=C2)c2ccc(S(=O)(=O)O)cc2)cc1
inactive: [7] 103 % of control | [10] 96 % of control | [8] 97 % of control | [11] 93 % of control | [13] 95 % of control | [12] 90 % of control

Oc1ccccc1C=NC1CCCCC1N=Cc1ccccc1O.[Ni] (stereo not drawn)
inactive: dose: 50.0 mg/kg/injection, schedule: Q04DX002 (ip), vehicle: saline with Tween-80 89 % of control | dose: 100.0 mg/kg/injection, schedule: Q04DX002 (ip), vehicle: saline with Tween-80 97 % of control | dose: 200.0 mg/kg/injection, schedule: Q04DX002 (ip), vehicle: saline with Tween-80 97 % of control | dose: 400.0 mg/kg/injection, schedule: Q04DX002 (ip), vehicle: saline with Tween-80 93 % of control

O=C(/C=C/c1ccccc1)SCc1ccccc1
inactive: [10] 96 % of control | [11] 98 % of control | [12] 94 % of control

Oc1ccc(CCNCc2cc3c(cc2Br)OCO3)cc1
inactive: dose: 100.0 mg/kg/injection, schedule: Q01DX001 (ip), vehicle: saline with Tween-80 104 % of control | dose: 200.0 mg/kg/injection, schedule: Q01DX001 (ip), vehicle: saline with Tween-80 96 % of control | dose: 400.0 mg/kg/injection, schedule: Q01DX001 (ip), vehicle: saline with Tween-80 104 % of control

CCOC(=O)/C(C#N)=N\O
inactive: [1] 102 % of control

Cc1ccnc(OCCCCCNCCS)c1
inactive: [14] 98 % of control | [15] 98 % of control

[N-]=[N+]=NC1C(O)C(CO)OC1n1c(=O)[nH]c2c(N)ncnc21 (stereo not drawn)
inactive: dose: 12.5 mg/kg/injection, schedule: Q01DX005 (ip), vehicle: water 94 % of control | dose: 25.0 mg/kg/injection, schedule: Q01DX005 (ip), vehicle: water 99 % of control | dose: 50.0 mg/kg/injection, schedule: Q01DX005 (ip), vehicle: water 97 % of control | dose: 100.0 mg/kg/injection, schedule: Q01DX005 (ip), vehicle: water 97 % of control | dose: 200.0 mg/kg/injection, schedule: Q01DX005 (ip), vehicle: water 97 % of control

O=C(CCl)Nc1ccc(SSc2ccc(NC(=O)CCl)cc2)cc1
inactive: dose: 25.0 mg/kg/injection, schedule: Q01DX009 (ip), vehicle: Klucel (hydroxypropylcellulose) (HPC) 95 % of control | dose: 50.0 mg/kg/injection, schedule: Q01DX009 (ip), vehicle: Klucel (hydroxypropylcellulose) (HPC) 96 % of control | dose: 100.0 mg/kg/injection, schedule: Q01DX009 (ip), vehicle: Klucel (hydroxypropylcellulose) (HPC) 93 % of control
